Measurements reported in ChEMBL document CHEMBL5154787 (J Med Chem, 2022).

Assays:
[1] = Metabolic stability in rat liver microsomes assessed as half life incubated at 0.5 uM for 10 mins in presence of NADPH by LC-MS/MS analysis; assay type: ADME, Microsome
[2] = Permeability of compound at pH 7.4 incubated for 4 hrs by PAMPA assay; assay type: ADME; settings: read-out: permeability
[3] = molecular target: T1, Cyclin-G-associated kinase (Homo sapiens, UniProt O14976); assay: Inhibition of GAK (unknown origin)
T1 sequence (O14976 whole entry): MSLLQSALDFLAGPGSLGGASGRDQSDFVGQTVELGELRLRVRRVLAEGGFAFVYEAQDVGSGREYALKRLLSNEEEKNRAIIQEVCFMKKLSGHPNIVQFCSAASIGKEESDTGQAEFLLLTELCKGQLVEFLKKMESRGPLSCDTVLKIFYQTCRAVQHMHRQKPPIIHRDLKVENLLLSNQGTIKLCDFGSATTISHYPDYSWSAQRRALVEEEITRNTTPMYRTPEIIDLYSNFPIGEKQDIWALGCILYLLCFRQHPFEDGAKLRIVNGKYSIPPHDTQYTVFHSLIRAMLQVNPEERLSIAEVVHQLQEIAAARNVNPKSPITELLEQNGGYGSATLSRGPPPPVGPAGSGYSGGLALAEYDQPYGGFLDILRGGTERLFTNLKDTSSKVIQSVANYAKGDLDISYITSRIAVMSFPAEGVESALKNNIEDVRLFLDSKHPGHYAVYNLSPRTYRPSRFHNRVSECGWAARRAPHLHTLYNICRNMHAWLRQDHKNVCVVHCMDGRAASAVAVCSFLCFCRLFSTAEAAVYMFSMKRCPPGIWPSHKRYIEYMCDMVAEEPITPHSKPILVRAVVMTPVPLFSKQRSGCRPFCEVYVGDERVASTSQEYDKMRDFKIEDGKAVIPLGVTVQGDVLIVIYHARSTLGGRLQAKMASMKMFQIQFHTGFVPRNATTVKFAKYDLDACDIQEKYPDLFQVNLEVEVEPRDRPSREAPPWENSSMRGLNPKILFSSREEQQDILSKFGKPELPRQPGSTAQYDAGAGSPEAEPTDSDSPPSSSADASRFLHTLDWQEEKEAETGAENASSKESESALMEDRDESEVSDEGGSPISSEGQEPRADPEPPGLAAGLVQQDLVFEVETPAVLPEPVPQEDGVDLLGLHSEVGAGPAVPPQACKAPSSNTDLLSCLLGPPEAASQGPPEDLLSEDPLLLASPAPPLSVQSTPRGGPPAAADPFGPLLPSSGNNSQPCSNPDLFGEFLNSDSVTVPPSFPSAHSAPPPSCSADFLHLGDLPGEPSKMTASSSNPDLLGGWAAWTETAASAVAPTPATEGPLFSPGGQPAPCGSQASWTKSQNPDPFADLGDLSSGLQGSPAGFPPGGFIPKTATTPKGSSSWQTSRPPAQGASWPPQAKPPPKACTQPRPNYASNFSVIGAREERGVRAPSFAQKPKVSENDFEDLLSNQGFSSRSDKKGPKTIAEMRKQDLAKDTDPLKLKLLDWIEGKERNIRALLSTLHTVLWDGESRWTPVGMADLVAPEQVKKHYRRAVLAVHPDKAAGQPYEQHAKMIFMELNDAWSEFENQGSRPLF

[4] = Cardiotoxicity in aortic ring (unknown origin) assessed as relaxation of phenylephrine induced aortic ring contraction at 10 uM incubated for 1 hr; assay type: toxicity, tissue-based, Aorta; set-up: scale not given: the % may be the effect or the level left; settings: human
[5] = molecular target: AP2-associated protein kinase 1 (Homo sapiens, UniProt Q2M2I8); assay: Inhibition of full length human AAK1 expressed in HEK293F cells assessed as suppression of AP2 phosphorylation measured after 3 hrs by Western blot analysis based cellular assay; assay type: cell-based
Chain of AP2-associated protein kinase 1 (Q2M2I8 whole entry): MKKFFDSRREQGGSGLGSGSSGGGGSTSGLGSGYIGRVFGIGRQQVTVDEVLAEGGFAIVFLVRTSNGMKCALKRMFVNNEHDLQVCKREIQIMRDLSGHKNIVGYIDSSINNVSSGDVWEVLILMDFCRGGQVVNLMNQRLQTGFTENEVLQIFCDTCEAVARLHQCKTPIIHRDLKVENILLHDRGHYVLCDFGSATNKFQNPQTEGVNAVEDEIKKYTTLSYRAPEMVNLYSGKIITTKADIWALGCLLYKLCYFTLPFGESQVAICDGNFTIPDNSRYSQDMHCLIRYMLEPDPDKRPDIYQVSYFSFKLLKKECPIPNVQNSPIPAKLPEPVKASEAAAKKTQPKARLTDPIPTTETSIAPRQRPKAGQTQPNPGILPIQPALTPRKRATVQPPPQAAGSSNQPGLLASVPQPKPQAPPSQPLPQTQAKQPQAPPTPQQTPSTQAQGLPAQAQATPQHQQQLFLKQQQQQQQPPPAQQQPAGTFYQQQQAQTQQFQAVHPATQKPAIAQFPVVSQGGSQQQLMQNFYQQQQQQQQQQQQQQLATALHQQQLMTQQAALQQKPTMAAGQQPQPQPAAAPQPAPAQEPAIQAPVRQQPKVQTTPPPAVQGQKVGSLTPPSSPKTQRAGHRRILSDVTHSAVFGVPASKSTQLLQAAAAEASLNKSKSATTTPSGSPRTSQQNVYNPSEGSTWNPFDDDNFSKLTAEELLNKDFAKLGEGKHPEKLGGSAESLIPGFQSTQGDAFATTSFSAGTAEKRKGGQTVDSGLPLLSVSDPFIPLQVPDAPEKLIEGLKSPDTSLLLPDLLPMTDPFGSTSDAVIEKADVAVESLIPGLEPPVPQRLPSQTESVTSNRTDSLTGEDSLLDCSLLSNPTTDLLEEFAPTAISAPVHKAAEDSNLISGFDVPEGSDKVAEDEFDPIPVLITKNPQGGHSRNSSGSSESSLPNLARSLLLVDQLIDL

Cytochrome P450 3A4 [6] = molecular target: T2, Cytochrome P450 3A4 (Homo sapiens, UniProt P08684); assay: Inhibition of […] (unknown origin) using BFC as substrate incubated for 10 mins in presence of NADPH by LC-MS/MS analysis; assay type: ADME
T2 sequence (P08684 whole entry): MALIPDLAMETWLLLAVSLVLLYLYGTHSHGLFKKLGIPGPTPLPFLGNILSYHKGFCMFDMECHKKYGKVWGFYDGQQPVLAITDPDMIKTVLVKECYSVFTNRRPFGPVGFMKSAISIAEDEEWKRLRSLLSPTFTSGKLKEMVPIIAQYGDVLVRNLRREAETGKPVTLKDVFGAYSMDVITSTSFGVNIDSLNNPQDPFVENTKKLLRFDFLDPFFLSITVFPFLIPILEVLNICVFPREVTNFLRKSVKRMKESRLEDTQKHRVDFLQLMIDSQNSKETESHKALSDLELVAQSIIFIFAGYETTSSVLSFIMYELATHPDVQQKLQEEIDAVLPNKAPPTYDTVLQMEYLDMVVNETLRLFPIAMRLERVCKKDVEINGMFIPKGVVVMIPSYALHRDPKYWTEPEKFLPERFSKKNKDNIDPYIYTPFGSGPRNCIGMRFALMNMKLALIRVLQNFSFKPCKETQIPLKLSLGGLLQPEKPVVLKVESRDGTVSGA

[7] = Metabolic stability in mouse liver microsomes assessed as parent compound remaining at 0.5 uM incubated for 10 mins in presence of NADPH by LC-MS/MS analysis; assay type: ADME, Microsome; settings: for remaining at 10 min, 0.5 µM: liver microsomes, read-out: Stability
[8] = Metabolic stability in human liver microsomes assessed as half life incubated at 0.5 uM for 10 mins in presence of NADPH by LC-MS/MS analysis; assay type: ADME, Microsome
[9] = Inhibition of sodium channel voltage-sensing domain (unknown origin); set-up: species or system Homo sapiens
[10] = Half life in rat at 3 mg/kg, po or 2 mg/kg, iv; assay type: ADME, organism-based; settings: in vivo
[11] = Protein binding in rat plasma assessed as unbound fraction measured after 3 hrs by LC/MS/MS analysis; assay type: ADME, cell-free
[12] = Protein binding in human plasma assessed as unbound fraction measured after 3 hrs by LC/MS/MS analysis; assay type: ADME, cell-free
[13] = Metabolic stability in dog microsomes assessed as half life incubated at 0.5 uM for 10 mins in presence of NADPH by LC-MS/MS analysis; assay type: ADME, Canis lupus familiaris, Liver, Microsome
[14] = Permeability across basolateral to apical side in human Caco-2 cells; assay type: ADME, cell-based; settings: read-out: permeability
Cytochrome P450 2C9 = Cytochrome P450 2C9 (Homo sapiens, UniProt P11712); assay: Inhibition of CYP2C9 (unknown origin) incubated for 10 mins in presence of NADPH by LC-MS/MS analysis; assay type: ADME
Chain of Cytochrome P450 2C9 (P11712 whole entry): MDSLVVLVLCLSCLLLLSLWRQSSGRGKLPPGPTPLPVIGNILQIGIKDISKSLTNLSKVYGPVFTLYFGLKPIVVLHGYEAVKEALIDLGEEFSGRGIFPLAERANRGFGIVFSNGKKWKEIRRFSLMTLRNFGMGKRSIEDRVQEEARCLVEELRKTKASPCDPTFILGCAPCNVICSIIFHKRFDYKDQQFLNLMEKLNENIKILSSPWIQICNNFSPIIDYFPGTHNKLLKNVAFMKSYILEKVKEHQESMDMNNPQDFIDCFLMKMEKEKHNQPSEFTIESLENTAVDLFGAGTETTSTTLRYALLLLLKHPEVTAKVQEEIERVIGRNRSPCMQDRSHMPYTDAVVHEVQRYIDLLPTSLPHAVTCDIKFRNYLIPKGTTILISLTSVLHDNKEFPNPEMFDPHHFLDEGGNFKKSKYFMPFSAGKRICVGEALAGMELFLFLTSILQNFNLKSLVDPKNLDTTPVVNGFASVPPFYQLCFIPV

[15] = Total body clearance in rat at 3 mg/kg, po or 2 mg/kg, iv; assay type: ADME, organism-based; settings: in vivo, read-out: CLt/F
Cytochrome P450 2B6 = molecular target: T3, Cytochrome P450 2B6 (Homo sapiens, UniProt P20813); assay: Inhibition of CYP2B6 (unknown origin) incubated for 10 mins in presence of NADPH by LC-MS/MS analysis; assay type: ADME
T3 sequence (P20813 whole entry): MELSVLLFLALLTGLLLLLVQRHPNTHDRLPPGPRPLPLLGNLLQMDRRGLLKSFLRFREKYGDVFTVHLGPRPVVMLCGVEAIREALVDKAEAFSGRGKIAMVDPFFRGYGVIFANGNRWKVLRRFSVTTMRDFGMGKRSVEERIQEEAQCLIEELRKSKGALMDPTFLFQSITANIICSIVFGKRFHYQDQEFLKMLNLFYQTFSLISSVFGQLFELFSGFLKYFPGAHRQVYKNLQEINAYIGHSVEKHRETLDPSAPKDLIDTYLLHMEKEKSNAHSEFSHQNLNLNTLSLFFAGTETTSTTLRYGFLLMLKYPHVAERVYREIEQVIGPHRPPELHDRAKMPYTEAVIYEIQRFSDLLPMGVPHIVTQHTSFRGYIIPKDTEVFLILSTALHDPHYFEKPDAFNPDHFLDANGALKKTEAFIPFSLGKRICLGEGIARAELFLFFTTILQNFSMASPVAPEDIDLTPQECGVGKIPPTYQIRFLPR

[16] = Metabolic stability in human liver microsomes assessed as parent compound remaining at 0.5 uM incubated for 10 mins in presence of NADPH by LC-MS/MS analysis; assay type: ADME, Microsome; settings: read-out: Stability
Cytochrome P450 3A4 [17] = molecular target: T2, Cytochrome P450 3A4; assay: Inhibition of CYP3A4 (unknown origin) incubated for 10 mins in presence of NADPH by LC-MS/MS analysis; assay type: ADME

Row | half-life at 0.5 µM [1] [h] | Papp at 4 h [2] [×10⁻⁶ cm/s] | IC50 [3] [µM] | IC50 [5] [µM] | IC50 (Cytochrome P450 3A4 [6]) [µM] | remaining at 10 min, 0.5 µM [7] [%] | half-life at 0.5 µM [8] [h] | IC50 [9] [µM] | half-life [10] [h] | fraction unbound at 3 h [11] | fraction unbound at 3 h [12] | half-life at 0.5 µM [13] [h] | Papp B→A [14] [×10⁻⁶ cm/s] | IC50 (Cytochrome P450 2C9) [µM] | CL/F [15] [mL/min/kg] | IC50 (Cytochrome P450 2B6) [µM] | remaining at 10 min, 0.5 µM [16] [%] | IC50 (Cytochrome P450 3A4 [17]) [µM] | Stability ([7]; microsomes, 10 min, 0.5 µM) [%] | SMILES | Activity [4] [%]
1 | 1.42 | 86.4 | 0.21 | 0.0024 | > 20 | 93 | > 2 | 39 | 11.3 | 0.225 | 0.18 | 1.68 | 38.4 | > 20 | 17.3 | > 20 | 95 | > 20 |  | COC(=O)Nc1cc(-c2ccc(OC[C@@](C)(N)CC(C)C)c(C)n2)ccn1 | 36
2 | 0.7 | 69.7 | 0.44 | 0.0034 | > 20 |  | > 2 | 11.5 | 7.55 | 0.105 | 0.115 | > 2 | 17.3 | > 20 | 63.6 | > 20 | 92 | > 20 | 68 | COC(=O)Nc1cc(-c2cnc(OC[C@@](C)(N)CC(C)C)c(C)c2)ccn1 | 66
3 | 1.27 | 45.8 | 0.4 | 0.0005 | > 20 | 89 | > 2 | 7.4 | 5.02 | 0.122 | 0.125 | 0.433 | 15.3 | > 20 | 119 | > 20 | 89 | > 20 |  | CC(C)C[C@](C)(N)COc1cnc(-c2ccnc(C(F)F)c2)cc1C(F)F | 58
